#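 Step 1: Grow cells in 96-well plates. Step 2: Expose to compound for 48 hours at 5 concentrations. Step 3: Interpolate endpoints linearly; if unreached, use highest concentration. At the GI50, growth is halved.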 The source made the active and inactive calls. Cut-off read from the data, not from the text of the source: active = GI50 up to about 1.1 µM and inactive = higher.
# How the values were obtained:
# Test in all cases: DTP human tumour cell line panel, 48 h
# SN12C = tested on: SN12C
# HOP-62 = tested on: HOP-62
# HCT-116 = tested on: HCT-116
# HCT-15 = tested on: HCT-15
# MCF7 = tested on: MCF7
# SF-295 = tested on: SF-295
# HT-29 = tested on: HT-29
# RXF 393 = tested on: RXF 393
# IGROV-1 = tested on: IGROV-1
# NCI-H460 = tested on: NCI-H460
# U-251 = tested on: U-251
# COLO 205 = tested on: COLO 205
# NCI/ADR-RES = tested on: NCI/ADR-RES
# KM12 = tested on: KM12
# MOLT-4 = tested on: MOLT-4
# UACC-62 = tested on: UACC-62
# PC-3 = tested on: PC-3
# LOX IMVI = tested on: LOX IMVI
# MDA-MB-231 = tested on: MDA-MB-231
# OVCAR-4 = tested on: OVCAR-4
# NCI-H23 = tested on: NCI-H23
# OVCAR-3 = tested on: OVCAR-3
# Malme-3M = tested on: Malme-3M
# UO-31 = tested on: UO-31
# M14 = tested on: M14
# SK-MEL-5 = tested on: SK-MEL-5
# Hs-578T = tested on: Hs-578T
# RPMI-8226 = tested on: RPMI-8226
# T47D = tested on: T47D
# CCRF-CEM = tested on: CCRF-CEM
# OVCAR-8 = tested on: OVCAR-8
# NCI-H226 = tested on: NCI-H226
# K562 = tested on: K562
# ACHN = tested on: ACHN
# SNB-75 = tested on: SNB-75
# CAKI-1 = tested on: CAKI-1
# MDA-MB-435 = tested on: MDA-MB-435
# EKVX = tested on: EKVX
# A549 = tested on: A549
# UACC-257 = tested on: UACC-257
# BT-549 = tested on: BT-549
# MDA-N = tested on: MDA-N
# SF-268 = tested on: SF-268
# 786-0 = tested on: 786-0
# TK-10 = tested on: TK-10
# DU-145 = tested on: DU-145
# SK-OV-3 = tested on: SK-OV-3
# OVCAR-5 = tested on: OVCAR-5
# NCI-H522 = tested on: NCI-H522
# HL-60 = tested on: HL-60
# SK-MEL-28 = tested on: SK-MEL-28
# SNB-19 = tested on: SNB-19
# SF-539 = tested on: SF-539
# A498 = tested on: A498
# SK-MEL-2 = tested on: SK-MEL-2
# SW-620 = tested on: SW-620
smiles,measurement,setting,value
O=c1[nH]c(=O)n(C2CC(O)C(CO)O2)cc1OCCCc1ccccc1 (stereo not drawn),GI50,SN12C,> 100 µM (inactive)
same,GI50,HOP-62,> 100 µM (inactive)
same,GI50,HCT-116,> 100 µM (inactive)
same,GI50,HCT-15,> 100 µM
same,GI50,MCF7,> 100 µM (inactive)
same,GI50,SF-295,> 100 µM (inactive)
same,GI50,HT-29,> 100 µM (inactive)
same,GI50,RXF 393,> 100 µM (inactive)
same,GI50,IGROV-1,> 100 µM (inactive)
same,GI50,NCI-H460,> 100 µM (inactive)
same,GI50,U-251,> 100 µM (inactive)
same,GI50,COLO 205,> 100 µM (inactive)
same,GI50,NCI/ADR-RES,> 100 µM (inactive)
same,GI50,KM12,> 100 µM (inactive)
same,GI50,MOLT-4,> 100 µM (inactive)
same,GI50,UACC-62,> 100 µM (inactive)
same,GI50,PC-3,> 100 µM (inactive)
same,GI50,LOX IMVI,> 100 µM (inactive)
same,GI50,MDA-MB-231,> 100 µM (inactive)
same,GI50,OVCAR-4,> 100 µM (inactive)
same,GI50,NCI-H23,> 100 µM (inactive)
same,GI50,OVCAR-3,> 100 µM (inactive)
same,GI50,Malme-3M,> 100 µM (inactive)
same,GI50,UO-31,> 100 µM (inactive)
same,GI50,M14,> 100 µM (inactive)
same,GI50,SK-MEL-5,> 100 µM (inactive)
same,GI50,Hs-578T,> 100 µM (inactive)
same,GI50,RPMI-8226,> 100 µM (inactive)
same,GI50,T47D,> 100 µM (inactive)
same,GI50,CCRF-CEM,> 100 µM (inactive)
same,GI50,OVCAR-8,> 100 µM (inactive)
same,GI50,NCI-H226,> 100 µM (inactive)
same,GI50,K562,> 100 µM (inactive)
same,GI50,ACHN,> 100 µM (inactive)
same,GI50,SNB-75,> 100 µM (inactive)
same,GI50,CAKI-1,> 100 µM (inactive)
same,GI50,MDA-MB-435,> 100 µM (inactive)
same,GI50,EKVX,> 100 µM (inactive)
same,GI50,A549,> 100 µM (inactive)
same,GI50,UACC-257,> 100 µM (inactive)
same,GI50,BT-549,> 100 µM (inactive)
same,GI50,MDA-N,> 100 µM (inactive)
same,GI50,SF-268,> 100 µM (inactive)
same,GI50,786-0,> 100 µM (inactive)
same,GI50,TK-10,> 100 µM (inactive)
same,GI50,DU-145,> 100 µM (inactive)
same,GI50,SK-OV-3,> 100 µM (inactive)
same,GI50,OVCAR-5,> 100 µM (inactive)
same,GI50,NCI-H522,> 100 µM (inactive)
same,GI50,HL-60,> 100 µM (inactive)
same,GI50,SK-MEL-28,> 100 µM (inactive)
same,GI50,SNB-19,> 100 µM (inactive)
O=C(Nc1ccn(C2CC(O)C(CO)O2)c(=O)n1)c1ccccc1 (stereo not drawn),GI50,SN12C,> 100 µM (inactive)
same,GI50,HOP-62,> 100 µM (inactive)
same,GI50,HCT-116,> 100 µM (inactive)
same,GI50,HCT-15,> 100 µM
same,GI50,MCF7,> 100 µM (inactive)
same,GI50,SF-295,> 100 µM (inactive)
same,GI50,HT-29,> 100 µM (inactive)
same,GI50,IGROV-1,> 100 µM (inactive)
same,GI50,NCI-H460,> 100 µM (inactive)
same,GI50,U-251,> 100 µM (inactive)
same,GI50,COLO 205,> 100 µM (inactive)
same,GI50,NCI/ADR-RES,> 100 µM (inactive)
same,GI50,KM12,> 100 µM (inactive)
same,GI50,MOLT-4,> 100 µM (inactive)
same,GI50,UACC-62,> 100 µM (inactive)
same,GI50,PC-3,> 100 µM (inactive)
same,GI50,LOX IMVI,> 100 µM (inactive)
same,GI50,MDA-MB-231,> 100 µM (inactive)
same,GI50,SF-539,> 100 µM (inactive)
same,GI50,OVCAR-4,> 100 µM (inactive)
same,GI50,NCI-H23,> 100 µM (inactive)
same,GI50,OVCAR-3,> 100 µM (inactive)
same,GI50,M14,> 100 µM (inactive)
same,GI50,SK-MEL-5,> 100 µM (inactive)
same,GI50,Hs-578T,> 100 µM (inactive)
same,GI50,RPMI-8226,> 100 µM (inactive)
same,GI50,T47D,> 100 µM (inactive)
same,GI50,CCRF-CEM,> 100 µM (inactive)
same,GI50,OVCAR-8,> 100 µM (inactive)
same,GI50,NCI-H226,> 100 µM (inactive)
same,GI50,K562,> 100 µM (inactive)
same,GI50,ACHN,> 100 µM (inactive)
same,GI50,SNB-75,> 100 µM (inactive)
same,GI50,CAKI-1,> 100 µM (inactive)
same,GI50,A498,> 100 µM (inactive)
same,GI50,MDA-MB-435,> 100 µM (inactive)
same,GI50,EKVX,> 100 µM (inactive)
same,GI50,A549,> 100 µM (inactive)
same,GI50,UACC-257,> 100 µM (inactive)
same,GI50,BT-549,> 100 µM (inactive)
same,GI50,MDA-N,> 100 µM (inactive)
same,GI50,SF-268,> 100 µM (inactive)
same,GI50,786-0,> 100 µM (inactive)
same,GI50,SK-MEL-2,> 100 µM (inactive)
same,GI50,TK-10,> 100 µM (inactive)
same,GI50,DU-145,> 100 µM (inactive)
same,GI50,SW-620,> 100 µM (inactive)
same,GI50,SK-OV-3,> 100 µM (inactive)
same,GI50,OVCAR-5,> 100 µM (inactive)
same,GI50,NCI-H522,> 100 µM (inactive)
same,GI50,HL-60,> 100 µM (inactive)
same,GI50,SK-MEL-28,> 100 µM (inactive)
same,GI50,SNB-19,> 100 µM (inactive)
Cc1ccc2c(=O)c(-c3nnc(N)s3)c[nH]c2n1,GI50,SN12C,> 100 µM (inactive)
same,GI50,HOP-62,18.6 µM (inactive)
same,GI50,HCT-116,> 100 µM (inactive)
same,GI50,HCT-15,> 100 µM
same,GI50,MCF7,> 100 µM (inactive)
same,GI50,SF-295,> 100 µM (inactive)
same,GI50,HT-29,> 100 µM (inactive)
same,GI50,RXF 393,83.4 µM (inactive)
same,GI50,IGROV-1,> 100 µM (inactive)
same,GI50,NCI-H460,> 100 µM (inactive)
same,GI50,U-251,67.1 µM (inactive)
same,GI50,COLO 205,> 100 µM (inactive)
same,GI50,NCI/ADR-RES,> 100 µM (inactive)
same,GI50,KM12,> 100 µM (inactive)
same,GI50,MOLT-4,> 100 µM (inactive)
same,GI50,UACC-62,> 100 µM (inactive)
same,GI50,PC-3,> 100 µM (inactive)
same,GI50,LOX IMVI,> 100 µM (inactive)
same,GI50,MDA-MB-231,> 100 µM (inactive)
same,GI50,OVCAR-4,> 100 µM (inactive)
same,GI50,NCI-H23,> 100 µM (inactive)
same,GI50,OVCAR-3,> 100 µM (inactive)
same,GI50,Malme-3M,> 100 µM (inactive)
same,GI50,UO-31,> 100 µM (inactive)
same,GI50,M14,> 100 µM (inactive)
same,GI50,SK-MEL-5,> 100 µM (inactive)
same,GI50,Hs-578T,> 100 µM (inactive)
same,GI50,RPMI-8226,> 100 µM (inactive)
same,GI50,T47D,> 100 µM (inactive)
same,GI50,CCRF-CEM,> 100 µM (inactive)
same,GI50,OVCAR-8,42.2 µM (inactive)
same,GI50,NCI-H226,71.4 µM (inactive)
same,GI50,K562,> 100 µM (inactive)
same,GI50,ACHN,> 100 µM (inactive)
same,GI50,CAKI-1,> 100 µM (inactive)
same,GI50,A498,> 100 µM (inactive)
same,GI50,MDA-MB-435,> 100 µM (inactive)
same,GI50,EKVX,> 100 µM (inactive)
same,GI50,A549,> 100 µM (inactive)
same,GI50,UACC-257,> 100 µM (inactive)
same,GI50,BT-549,> 100 µM (inactive)
same,GI50,MDA-N,> 100 µM (inactive)
same,GI50,SF-268,36.3 µM (inactive)
same,GI50,786-0,55.2 µM (inactive)
same,GI50,SK-MEL-2,> 100 µM (inactive)
same,GI50,TK-10,> 100 µM (inactive)
same,GI50,DU-145,> 100 µM (inactive)
same,GI50,SW-620,> 100 µM (inactive)
same,GI50,OVCAR-5,> 100 µM (inactive)
same,GI50,NCI-H522,> 100 µM (inactive)
same,GI50,HL-60,> 100 µM (inactive)
same,GI50,SK-MEL-28,> 100 µM (inactive)
same,GI50,SNB-19,> 100 µM (inactive)

# From ChEMBL document CHEMBL1201862, “PubChem BioAssay data set” (2004)
